As usually defined, the AC50 is the concentration giving half of the maximal activity seen. By EC50 is commonly meant the concentration giving half of the maximal effect. One may read the CC50 as the concentration at which the toxic effect on the cells reaches its halfway point.

Here are results for seven compounds from ChEMBL document CHEMBL1201862, “PubChem BioAssay data set” (2004).

One assay deals with Candida albicans. The experiment in a line: reversal of fluconazole resistance in C. albicans, dose response, CaCi-2 strain, Alamar Blue, dry powder, set 3 (AID 488907). In kind it is functional, organism-based. On the technique in general: Alamar Blue is a resazurin reagent that responds to reducing activity.
Assay [1] addresses Delta-type opioid receptor (Homo sapiens, UniProt P41143). Put plainly: Counterscreen for agonists of heterodimerization of the mu 1 (OPRM1) and delta 1 (OPRD1) opioid receptors: Luminescence-based cell-based high throughput dose response assay to identify agonists of OPRD1 homodimerization. [Related pubchem assays (depositor defined):AID504326, AID504355, AID504692, AID504904, AID504905]. It is filed as functional.

The target of another assay is Mu-type opioid receptor (Homo sapiens, UniProt P35372). The experiment in a line: Counterscreen for agonists of heterodimerization of the mu 1 (OPRM1) and delta 1 (OPRD1) opioid receptors: Luminescence-based cell-based high throughput dose response assay to identify agonists of OPRM1 homodimerization. It is filed as functional.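 Note: U2OS cells expressing OPRM1 and beta-arrestin as split beta-galactosidase partners.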
Sequence of Mu-type opioid receptor (P35372 whole entry): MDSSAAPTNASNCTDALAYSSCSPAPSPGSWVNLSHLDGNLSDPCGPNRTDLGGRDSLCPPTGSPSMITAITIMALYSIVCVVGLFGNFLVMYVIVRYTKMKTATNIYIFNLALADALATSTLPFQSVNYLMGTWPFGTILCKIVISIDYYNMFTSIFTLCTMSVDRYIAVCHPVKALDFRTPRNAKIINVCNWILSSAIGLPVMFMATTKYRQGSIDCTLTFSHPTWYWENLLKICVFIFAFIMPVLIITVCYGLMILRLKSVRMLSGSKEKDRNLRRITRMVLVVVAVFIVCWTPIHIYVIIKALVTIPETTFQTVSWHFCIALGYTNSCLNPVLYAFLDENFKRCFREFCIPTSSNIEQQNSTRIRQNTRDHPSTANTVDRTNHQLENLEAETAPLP
Assay [2] concerns the target 5-hydroxytryptamine receptor 5A (Homo sapiens, UniProt P47898). Put plainly: Counterscreen for agonists of OPRM1-OPRD1 heterodimerization: luminescence-based cell-based high throughput dose response assay to identify agonists of 5-hydroxytryptamine (serotonin) 5A receptor (HTR5A). [Related pubchem assays (depositor defined):AID504326, AID504355, AID504692, AID504904, AID504905]. It is filed as functional. (In general: A counterscreen serves to expose hits that act by an unwanted route or on another target.)

A further assay deals with Beta-galactosidase (Escherichia coli, UniProt Q8VNN2). Put plainly: PubChem AID 485352. In kind it is functional.
Sequence of Beta-galactosidase (Q8VNN2 whole entry): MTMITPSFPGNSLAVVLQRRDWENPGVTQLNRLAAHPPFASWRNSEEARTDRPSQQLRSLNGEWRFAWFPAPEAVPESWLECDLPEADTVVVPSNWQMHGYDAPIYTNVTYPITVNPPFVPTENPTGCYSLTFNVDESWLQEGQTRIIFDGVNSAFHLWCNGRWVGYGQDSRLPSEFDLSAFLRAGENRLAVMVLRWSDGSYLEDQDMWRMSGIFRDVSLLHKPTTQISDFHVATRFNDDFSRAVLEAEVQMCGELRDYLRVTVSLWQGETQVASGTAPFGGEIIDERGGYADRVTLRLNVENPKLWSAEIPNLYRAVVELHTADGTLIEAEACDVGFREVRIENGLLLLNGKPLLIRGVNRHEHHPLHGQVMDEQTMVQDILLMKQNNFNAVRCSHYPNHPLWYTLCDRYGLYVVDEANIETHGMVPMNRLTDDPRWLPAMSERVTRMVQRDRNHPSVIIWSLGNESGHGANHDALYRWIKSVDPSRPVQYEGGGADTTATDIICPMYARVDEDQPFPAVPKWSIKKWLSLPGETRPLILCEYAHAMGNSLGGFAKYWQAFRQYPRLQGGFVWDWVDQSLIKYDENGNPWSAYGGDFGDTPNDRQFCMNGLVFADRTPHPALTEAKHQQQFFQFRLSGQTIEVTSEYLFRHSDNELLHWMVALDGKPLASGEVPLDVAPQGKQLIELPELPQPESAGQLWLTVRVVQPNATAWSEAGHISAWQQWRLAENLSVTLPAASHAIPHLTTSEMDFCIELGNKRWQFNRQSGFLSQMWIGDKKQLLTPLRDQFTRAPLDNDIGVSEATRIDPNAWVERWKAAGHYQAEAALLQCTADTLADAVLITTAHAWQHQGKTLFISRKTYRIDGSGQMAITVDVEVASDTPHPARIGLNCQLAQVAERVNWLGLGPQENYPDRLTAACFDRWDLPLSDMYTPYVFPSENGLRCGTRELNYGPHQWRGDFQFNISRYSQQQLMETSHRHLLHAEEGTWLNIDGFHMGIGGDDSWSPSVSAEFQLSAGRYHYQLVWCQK
Assay [3] deals with T1, Type-1 angiotensin II receptor (Homo sapiens, UniProt P30556).
T1 sequence (P30556 whole entry): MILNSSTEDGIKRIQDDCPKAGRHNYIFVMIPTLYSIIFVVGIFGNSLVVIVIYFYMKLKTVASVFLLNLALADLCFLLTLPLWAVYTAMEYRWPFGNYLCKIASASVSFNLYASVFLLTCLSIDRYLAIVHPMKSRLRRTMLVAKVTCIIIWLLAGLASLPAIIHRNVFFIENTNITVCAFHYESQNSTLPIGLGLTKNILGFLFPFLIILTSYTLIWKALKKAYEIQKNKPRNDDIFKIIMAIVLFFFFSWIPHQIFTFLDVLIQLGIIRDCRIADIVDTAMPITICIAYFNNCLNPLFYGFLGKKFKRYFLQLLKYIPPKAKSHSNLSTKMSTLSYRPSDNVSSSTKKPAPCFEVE
Put plainly: AT1 receptor antagonists, dose response, selectivity assay for APJ receptor antagonist project, cell-based, uHTS hits (AID 463214).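 Note: antagonist potency against angiotensin II stimulated AT1 response.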 It is filed as functional.

Assay [4] concerns the target T2, Polyadenylate-binding protein 1 (Homo sapiens, UniProt P11940). Put plainly: PABP1 MLLE–PAM2 interaction inhibitors, dose response, miRNA deadenylation inhibitor project, biochemical, fluorescence polarization, Cy5-PAM2 peptide, secondary (AID 602260). The settings on record: read-out: IC50_Mean. In kind it is functional.
The target in assay [5] is T2, Polyadenylate-binding protein 1. Put plainly: PABP1 MLLE–PAM2 binding inhibitor potency, dose response, biochemical, fluorescence polarization, FITC-PAM2 peptide (AID 602259). It is filed as functional. Particulars: read-out: IC50_Mean. (In general: Polarisation of emitted light reports the rotation of a fluorescent probe.)
Assay [6] deals with Tyrosine-protein phosphatase non-receptor type 7 (Homo sapiens, UniProt P35236). It is filed as functional.
Sequence of Tyrosine-protein phosphatase non-receptor type 7 (P35236 whole entry): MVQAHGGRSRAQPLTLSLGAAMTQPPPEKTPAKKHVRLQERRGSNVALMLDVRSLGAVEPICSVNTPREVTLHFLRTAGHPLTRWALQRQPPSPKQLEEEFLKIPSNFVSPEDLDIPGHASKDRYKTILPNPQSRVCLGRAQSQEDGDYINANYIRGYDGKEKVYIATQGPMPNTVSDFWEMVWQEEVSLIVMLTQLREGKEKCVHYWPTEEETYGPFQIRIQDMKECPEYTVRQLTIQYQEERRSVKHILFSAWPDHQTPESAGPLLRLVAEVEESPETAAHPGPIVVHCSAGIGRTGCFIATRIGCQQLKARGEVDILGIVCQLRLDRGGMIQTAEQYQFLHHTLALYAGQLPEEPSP
The target of assay [7] is Glyceraldehyde-3-phosphate dehydrogenase (Homo sapiens, UniProt P04406).
Sequence of Glyceraldehyde-3-phosphate dehydrogenase (P04406 whole entry): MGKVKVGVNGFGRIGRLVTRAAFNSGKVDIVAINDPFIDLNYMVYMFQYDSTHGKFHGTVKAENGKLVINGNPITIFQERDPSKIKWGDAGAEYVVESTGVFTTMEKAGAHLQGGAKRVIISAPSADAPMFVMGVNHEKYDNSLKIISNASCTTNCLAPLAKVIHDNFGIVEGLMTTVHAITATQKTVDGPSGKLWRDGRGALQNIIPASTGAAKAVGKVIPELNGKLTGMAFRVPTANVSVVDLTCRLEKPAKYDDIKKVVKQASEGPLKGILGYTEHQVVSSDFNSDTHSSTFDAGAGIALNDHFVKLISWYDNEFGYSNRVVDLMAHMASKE
Assay [8] has as its target T3, Dual specificity protein phosphatase 6 (Rattus norvegicus, UniProt Q64346).
T3 sequence (Q64346 whole entry): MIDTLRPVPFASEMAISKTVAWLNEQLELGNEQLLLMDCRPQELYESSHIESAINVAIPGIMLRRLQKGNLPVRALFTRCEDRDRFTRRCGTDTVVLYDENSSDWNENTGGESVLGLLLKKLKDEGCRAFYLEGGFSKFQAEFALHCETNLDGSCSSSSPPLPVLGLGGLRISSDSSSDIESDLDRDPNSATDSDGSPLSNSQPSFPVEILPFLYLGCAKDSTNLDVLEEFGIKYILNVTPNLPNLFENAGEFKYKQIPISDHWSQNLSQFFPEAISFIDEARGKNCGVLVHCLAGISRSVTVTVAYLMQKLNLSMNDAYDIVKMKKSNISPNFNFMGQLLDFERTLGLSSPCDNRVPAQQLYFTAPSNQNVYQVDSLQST

In assay [9] the target is T3, Dual specificity protein phosphatase 6. In kind it is functional.
The target in assay [10] is T4, Endoribonuclease toxin MazF (Escherichia coli K-12, UniProt P0AE70). Put plainly: MazF toxin RNase activators, dose response, biochemical, fluorescence, single-stranded RNA substrate, uHTS hits (AID 588481). It is filed as functional.
T4 sequence (P0AE70 whole entry): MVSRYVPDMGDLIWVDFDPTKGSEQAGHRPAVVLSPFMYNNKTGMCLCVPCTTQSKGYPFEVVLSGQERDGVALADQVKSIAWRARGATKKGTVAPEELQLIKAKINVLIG
In assay [11] the target is T4, Endoribonuclease toxin MazF. Put plainly: fluorescent RNA oligo signal without MazF, dose response, counter-screen for MazEF activator project, biochemical, fluorescence, single-stranded RNase substrate (AID 588502). In kind it is functional.
Assay [12] can be described thus: HEp-2 cell cytotoxicity, dose response, cytotoxicity control for RSV inhibitor project, HTS (AID 2410). It is filed as functional. Particulars: human respiratory syncytial virus.
Assay [13] can be described thus: Luminescence Cell-Based Dose Retest to Confirm Inhibitors of Cancer Stem Cells. [Related pubchem assays (depositor defined):AID2717, AID2721]. It is filed as functional. Particulars: Homo sapiens.
The next assay has as its target Trypsin (Sus scrofa, UniProt P00761). Put plainly: porcine trypsin inhibitors, dose response, selectivity assay for Rce1 protease inhibitor project, biochemical, quenched peptide fluorescence, cherry-pick (AID 488789).
For another assay, the target named is CAAX prenyl protease 2 (Homo sapiens, UniProt Q9Y256). The experiment in a line: human Rce1 protease inhibitors, dose response, biochemical, yeast membranes, quenched-peptide fluorescence, cherry-pick (AID 588849).
Sequence of CAAX prenyl protease 2 (Q9Y256 whole entry): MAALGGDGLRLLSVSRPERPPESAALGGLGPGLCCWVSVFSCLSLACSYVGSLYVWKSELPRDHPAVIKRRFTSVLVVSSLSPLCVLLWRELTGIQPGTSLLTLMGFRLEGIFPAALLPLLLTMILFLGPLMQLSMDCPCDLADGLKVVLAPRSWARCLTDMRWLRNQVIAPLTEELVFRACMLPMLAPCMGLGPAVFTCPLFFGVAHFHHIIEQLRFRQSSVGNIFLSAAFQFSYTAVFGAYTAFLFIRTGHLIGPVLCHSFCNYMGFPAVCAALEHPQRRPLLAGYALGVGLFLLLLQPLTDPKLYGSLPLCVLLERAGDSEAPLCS
For the next assay, the target named is DNA topoisomerase (Yersinia pestis, UniProt A0A2S9PM60). Put plainly: Y. pestis Topo-I inhibitors, cleavage product readout, dose response, biochemical, cherry-pick (AID 588525).
Sequence of DNA topoisomerase (A0A2S9PM60 whole entry): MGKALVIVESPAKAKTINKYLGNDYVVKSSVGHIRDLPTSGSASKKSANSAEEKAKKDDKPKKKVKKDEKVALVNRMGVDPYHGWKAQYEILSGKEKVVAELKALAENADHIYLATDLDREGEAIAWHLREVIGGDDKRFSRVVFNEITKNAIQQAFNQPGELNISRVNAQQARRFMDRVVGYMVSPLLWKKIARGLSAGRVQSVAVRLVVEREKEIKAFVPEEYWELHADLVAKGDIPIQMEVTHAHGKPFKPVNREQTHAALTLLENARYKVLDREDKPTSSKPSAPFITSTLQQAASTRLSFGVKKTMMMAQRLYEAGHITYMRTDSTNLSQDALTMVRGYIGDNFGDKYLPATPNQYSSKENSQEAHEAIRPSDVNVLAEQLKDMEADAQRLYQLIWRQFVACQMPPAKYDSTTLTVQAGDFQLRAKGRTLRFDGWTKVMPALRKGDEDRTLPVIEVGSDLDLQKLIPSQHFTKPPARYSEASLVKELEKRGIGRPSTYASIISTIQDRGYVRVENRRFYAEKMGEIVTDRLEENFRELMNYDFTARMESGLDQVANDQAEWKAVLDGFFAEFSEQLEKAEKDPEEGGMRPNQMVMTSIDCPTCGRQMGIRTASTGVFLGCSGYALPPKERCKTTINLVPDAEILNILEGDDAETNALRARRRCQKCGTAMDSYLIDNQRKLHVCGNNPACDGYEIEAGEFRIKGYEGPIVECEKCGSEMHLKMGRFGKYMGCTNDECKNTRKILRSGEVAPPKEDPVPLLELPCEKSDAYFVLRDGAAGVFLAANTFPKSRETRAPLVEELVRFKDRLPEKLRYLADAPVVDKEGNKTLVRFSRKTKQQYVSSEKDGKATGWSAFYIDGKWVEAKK

The source made the active and inactive calls. A value given as a limit tells only on which side of the number the result lay.

T2 sequence (P11940 whole entry): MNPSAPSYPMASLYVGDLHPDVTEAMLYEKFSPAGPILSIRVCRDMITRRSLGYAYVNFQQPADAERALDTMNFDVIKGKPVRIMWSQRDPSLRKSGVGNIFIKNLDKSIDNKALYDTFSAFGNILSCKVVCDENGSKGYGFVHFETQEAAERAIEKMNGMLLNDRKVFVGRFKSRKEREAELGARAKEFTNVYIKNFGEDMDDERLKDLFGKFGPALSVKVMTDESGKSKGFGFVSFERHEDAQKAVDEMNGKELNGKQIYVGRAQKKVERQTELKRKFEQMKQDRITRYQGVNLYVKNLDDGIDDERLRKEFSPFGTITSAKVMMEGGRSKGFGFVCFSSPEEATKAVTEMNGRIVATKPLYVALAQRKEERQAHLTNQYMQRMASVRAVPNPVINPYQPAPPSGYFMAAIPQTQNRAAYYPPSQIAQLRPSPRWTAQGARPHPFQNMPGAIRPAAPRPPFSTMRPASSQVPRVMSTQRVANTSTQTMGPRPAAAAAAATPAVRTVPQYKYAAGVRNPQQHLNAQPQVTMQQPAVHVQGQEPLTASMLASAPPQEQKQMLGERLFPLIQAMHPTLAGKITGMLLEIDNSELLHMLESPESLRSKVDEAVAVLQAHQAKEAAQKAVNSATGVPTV
Sequence of Delta-type opioid receptor (P41143 whole entry): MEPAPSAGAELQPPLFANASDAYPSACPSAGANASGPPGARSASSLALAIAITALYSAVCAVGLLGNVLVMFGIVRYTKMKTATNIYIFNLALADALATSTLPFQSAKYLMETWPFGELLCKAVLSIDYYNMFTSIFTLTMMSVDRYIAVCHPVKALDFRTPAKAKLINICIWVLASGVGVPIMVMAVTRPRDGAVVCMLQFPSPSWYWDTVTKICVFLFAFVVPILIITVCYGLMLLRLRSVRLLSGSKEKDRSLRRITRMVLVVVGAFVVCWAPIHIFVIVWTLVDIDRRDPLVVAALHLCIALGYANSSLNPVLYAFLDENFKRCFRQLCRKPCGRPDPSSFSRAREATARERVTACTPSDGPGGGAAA
Sequence of 5-hydroxytryptamine receptor 5A (P47898 whole entry): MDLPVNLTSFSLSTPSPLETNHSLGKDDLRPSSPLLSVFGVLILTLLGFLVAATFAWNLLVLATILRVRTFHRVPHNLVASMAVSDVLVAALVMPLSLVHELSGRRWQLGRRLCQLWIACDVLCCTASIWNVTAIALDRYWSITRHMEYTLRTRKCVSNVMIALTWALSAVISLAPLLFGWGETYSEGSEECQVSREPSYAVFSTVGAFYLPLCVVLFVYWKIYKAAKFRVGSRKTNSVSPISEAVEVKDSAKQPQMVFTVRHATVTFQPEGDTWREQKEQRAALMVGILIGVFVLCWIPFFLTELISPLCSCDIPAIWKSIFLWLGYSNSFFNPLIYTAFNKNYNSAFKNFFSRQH

Take `CC(C)C(=O)N1CCN(c2ccccn2)CC1`: in the assay on Candida albicans, the AC50 is 0.961 µM (active).

Take `Cc1ccc(CSCC(=O)N/N=C/c2sccc2C)cc1`: the EC50 in [1] was > 92.5 µM (inactive); at Mu-type opioid receptor, 42.8 µM (inactive); in assay [2] it was > 92.5 µM (inactive).

In the case of `Cc1c(Cl)cccc1NC(=S)NNc1ncc(C(F)(F)F)cc1Cl`, on Beta-galactosidase, the EC50 is > 40 µM (inactive). Besides, the IC50 in assay [3] is 11.9 µM (active); in [4], > 66 µM (inactive); in [5] it was > 66 µM (inactive).

As to `NC(=O)[C@H](Cc1ccccc1)n1c(=O)n(Cc2ccc(Br)cc2)c(=O)n(-c2ccccc2)c1=O`, the IC50 in assay [6] is > 100 µM (not active); in [7] it was > 100 µM (not active); in assay [8], > 100 µM (inactive); in assay [9], > 100 µM (inactive).

Take `CCOC(=O)c1c(N=C(S)Nc2ccc(Cl)cc2)sc2c1CCN(C)C2`: the EC50 in assay [10] and in assay [11] was > 99 µM (inactive) throughout.

Consider `Cc1cccc(-c2oc3ccccc3c2C#CCCO)c1`, for which the CC50 in assay [12] was 19.5 µM (active). The AC50 was 7.86 µM (active) in assay [13], 3.96 µM (active) at Trypsin and 32 µM (active) on CAAX prenyl protease 2. Further, in the assay “cells”, the IC50 was 24.2 µM (active).

In the case of `Cc1cc(C(=O)COC(=O)Cc2nnc(O)c3ccccc23)c(C)n1-c1cccc(C(F)(F)F)c1`, at DNA topoisomerase, the AC50 is 11.4 µM (active).
